pIC50: −log10 of the molar value.
Experiments:
CDK1_CycA2 = molecular target: T1, CDK1_CycA2 (Homo sapiens, UniProt P06493); test: Radiometric protein kinase assay (33PanQinase), CDK1_CycA2; assay type: biochemical
T1 construct: purchased Reaction Biology

CDK1_CycB1 = molecular target: T2, CDK1_CycB1 (Homo sapiens, UniProt P06493); test: Radiometric protein kinase assay (33PanQinase), CDK1_CycB1; assay type: biochemical
T2 construct: purchased Reaction Biology

CDK1_CycE1 = molecular target: T3, CDK1_CycE1 (Homo sapiens, UniProt P06493); test: Radiometric protein kinase assay (33PanQinase), CDK1_CycE1; assay type: biochemical
T3 construct: purchased Reaction Biology

CDK10_CycQ = CDK10_CycQ (Homo sapiens, UniProt Q15131); test: Radiometric protein kinase assay (33PanQinase), CDK10_CycQ; assay type: biochemical
CDK11B 357-795_CycK = CDK11B 357-795_CycK (Homo sapiens, UniProt P21127); test: Radiometric protein kinase assay (33PanQinase), CDK11B 357-795_CycK; assay type: biochemical
CDK12_CycK = molecular target: T4, CDK12_CycK (Homo sapiens, UniProt Q9NYV4); test: Radiometric protein kinase assay (33PanQinase), CDK12_CycK; assay type: biochemical
T4 construct: purchased Reaction Biology

CDK13_CycK = molecular target: T5, CDK13_CycK (Homo sapiens, UniProt Q14004); test: Radiometric protein kinase assay (33PanQinase), CDK13_CycK; assay type: biochemical
T5 construct: purchased Reaction Biology

CDK14_CycY = CDK14_CycY (Homo sapiens, UniProt O94921); test: Radiometric protein kinase assay (33PanQinase), CDK14_CycY; assay type: biochemical
CDK15_CycA2 = molecular target: T6, CDK15_CycA2 (Homo sapiens, UniProt Q96Q40); test: Radiometric protein kinase assay (33PanQinase), CDK15_CycA2; assay type: biochemical
T6 construct: purchased Reaction Biology

CDK16_CycY = molecular target: T7, CDK16_CycY (Homo sapiens, UniProt Q00536); test: Radiometric protein kinase assay (33PanQinase), CDK16_CycY; assay type: biochemical
T7 construct: purchased Reaction Biology

CDK17_p35NCK = CDK17_p35NCK (Homo sapiens, UniProt Q00537); test: Radiometric protein kinase assay (33PanQinase), CDK17_p35NCK; assay type: biochemical
CDK18_CycY = CDK18_CycY (Homo sapiens, UniProt Q07002); test: Radiometric protein kinase assay (33PanQinase), CDK18_CycY; assay type: biochemical
CDK19_CycC = molecular target: T8, CDK19_CycC (Homo sapiens, UniProt Q9BWU1); test: Radiometric protein kinase assay (33PanQinase), CDK19_CycC; assay type: biochemical
T8 construct: purchased Reaction Biology

CDK2_CycA2 = molecular target: T9, CDK2_CycA2 (Homo sapiens, UniProt P24941); test: Radiometric protein kinase assay (33PanQinase), CDK2_CycA2; assay type: biochemical
T9 construct: purchased Reaction Biology

CDK2_CycD1 = molecular target: T10, CDK2_CycD1 (Homo sapiens, UniProt P24941); test: Radiometric protein kinase assay (33PanQinase), CDK2_CycD1; assay type: biochemical
T10 construct: purchased Reaction Biology

CDK2_CycE1 = molecular target: T11, CDK2_CycE1 (Homo sapiens, UniProt P24941); test: Radiometric protein kinase assay (33PanQinase), CDK2_CycE1; assay type: biochemical
T11 construct: purchased Reaction Biology

CDK20_CycH = CDK20_CycH (Homo sapiens, UniProt Q8IZL9); test: Radiometric protein kinase assay (33PanQinase), CDK20_CycH; assay type: biochemical
CDK20_CycT1 = CDK20_CycT1 (Homo sapiens, UniProt Q8IZL9); test: Radiometric protein kinase assay (33PanQinase), CDK20_CycT1; assay type: biochemical
CDK3_CycC = molecular target: T12, CDK3_CycC (Homo sapiens, UniProt Q00526); test: Radiometric protein kinase assay (33PanQinase), CDK3_CycC; assay type: biochemical
T12 construct: purchased Reaction Biology

CDK3_CycE1 = molecular target: T13, CDK3_CycE1 (Homo sapiens, UniProt Q00526); test: Radiometric protein kinase assay (33PanQinase), CDK3_CycE1; assay type: biochemical
T13 construct: purchased Reaction Biology

CDK4_CycD1 = molecular target: T14, CDK4_CycD1 (Homo sapiens, UniProt P11802); test: Radiometric protein kinase assay (33PanQinase), CDK4_CycD1; assay type: biochemical
T14 construct: purchased Reaction Biology

CDK4_CycD2 = molecular target: T15, CDK4_CycD2 (Homo sapiens, UniProt P11802); test: Radiometric protein kinase assay (33PanQinase), CDK4_CycD2; assay type: biochemical
T15 construct: purchased Reaction Biology

CDK4_CycD3 = molecular target: T16, CDK4_CycD3 (Homo sapiens, UniProt P11802); test: Radiometric protein kinase assay (33PanQinase), CDK4_CycD3; assay type: biochemical
T16 construct: purchased Reaction Biology

CDK5_p25NCK = molecular target: T17, CDK5_p25NCK (Homo sapiens, UniProt Q00535); test: Radiometric protein kinase assay (33PanQinase), CDK5_p25NCK; assay type: biochemical
T17 construct: purchased Reaction Biology

CDK5_p35NCK = molecular target: T18, CDK5_p35NCK (Homo sapiens, UniProt Q00535); test: Radiometric protein kinase assay (33PanQinase), CDK5_p35NCK; assay type: biochemical
T18 construct: purchased Reaction Biology

CDK6_CycD1 = molecular target: T19, CDK6_CycD1 (Homo sapiens, UniProt Q00534); test: Radiometric protein kinase assay (33PanQinase), CDK6_CycD1; assay type: biochemical
T19 construct: purchased Reaction Biology

CDK6_CycD2 = molecular target: T20, CDK6_CycD2 (Homo sapiens, UniProt Q00534); test: Radiometric protein kinase assay (33PanQinase), CDK6_CycD2; assay type: biochemical
T20 construct: purchased Reaction Biology

CDK6_CycD3 = molecular target: T21, CDK6_CycD3 (Homo sapiens, UniProt Q00534); test: Radiometric protein kinase assay (33PanQinase), CDK6_CycD3; assay type: biochemical; settings: slope of the IC50 fit
T21 construct: purchased Reaction Biology

CDK7_CycH_MAT1 = molecular target: T22, CDK7_CycH_MAT1 (Homo sapiens, UniProt P50613); test: Radiometric protein kinase assay (33PanQinase), CDK7_CycH_MAT1; assay type: biochemical
T22 construct: purchased Reaction Biology

CDK8_CycC = molecular target: T23, CDK8_CycC (Homo sapiens, UniProt P49336); test: Radiometric protein kinase assay (33PanQinase), CDK8_CycC; assay type: biochemical
T23 construct: purchased Reaction Biology

CDK9_CycK = molecular target: T24, CDK9_CycK (Homo sapiens, UniProt P50750); test: Radiometric protein kinase assay (33PanQinase), CDK9_CycK; assay type: biochemical
T24 construct: purchased Reaction Biology

CDK9_CycT1 = molecular target: T25, CDK9_CycT1 (Homo sapiens, UniProt P50750); test: Radiometric protein kinase assay (33PanQinase), CDK9_CycT1; assay type: biochemical
T25 construct: purchased Reaction Biology

COLO205 cells = test: Promoter reporter panel (transient luciferase constructs), COLO205; assay type: cell-based, human; settings: COLO205, 350 nM, 6 h
Experimental: Transcription factor activity was assayed in cell lines using 45 different plasmid reporter constructs encoding firefly luciferase under the control of a basal promoter element downstream of specific transcriptional response elements (Qiagen, Germany; Supporting Table S1). Firefly luciferase under the control of basal promoter element alone was used to establish the baseline signal and cotransfection of a construct expressing renilla luciferase from a CMV-promoter was used as a transfection control. Cells were reverse-transfected with reporter plasmids, compounds were added 42 h post transfection and reporter activity quantified following 6 h continuous exposure.
Transcription factor promoter reporter assays were carried out to define signalling pathways and biological processes modulated by CDK8/19 ligands. A panel of plasmid reporter constructs encoding firefly luciferase under the control of a basal promoter element with specific transcriptional response elements were used (Qiagen, Germany;
Firefly luciferase under the control of the minimal promoter element (TATA box) alone was used to establish the base-line signal and a construct expressing renilla luciferase from a CMV-promoter was used as a transfection control. COLO205 human colon cancer cells or SW620 parental and CRISPR KO cells were reverse-transfected with the panel of plasmid reporters in a 96 well plate format. The reporter mixes were prepared at 40:1 ratio of fLUC to rLUC plasmid at a final concentration of
100 ng/ml. For each well 1 ul plasmid was complexed with 1 ul Lipofectamine 2000
(Thermo Fisher Scientific, UK) in 50 ul OptiMEM (Thermo Fisher Scientific, UK) media
for 20 mins at room temperature. Cells were trypsinised and 50 ul of cells at 2e5
cells/ml in supplemented DMEM were added to the 50 ul of plasmid:lipofectamine
mixture in OptiMEM in a well of a 96-well white opaque flat bottom microtiter plate.
fLUC and rLUC were measured by the addition of 100 ul dual glo luciferase reagent
(Promega, USA). Reporter activity was quantified in untreated cells 48 hours post- […]

CDK8 = test system: CDK8; set-up: method as in numbers not given; settings: reporter displacement assay; previously characterized compounds, no method in this paper; ref numbers not given; read-out: IC50 for in vitro CDK8 binding; cited from earlier work
[1] = highest assay concentration 1.00E-05 M

T23 sequence (P49336 whole entry): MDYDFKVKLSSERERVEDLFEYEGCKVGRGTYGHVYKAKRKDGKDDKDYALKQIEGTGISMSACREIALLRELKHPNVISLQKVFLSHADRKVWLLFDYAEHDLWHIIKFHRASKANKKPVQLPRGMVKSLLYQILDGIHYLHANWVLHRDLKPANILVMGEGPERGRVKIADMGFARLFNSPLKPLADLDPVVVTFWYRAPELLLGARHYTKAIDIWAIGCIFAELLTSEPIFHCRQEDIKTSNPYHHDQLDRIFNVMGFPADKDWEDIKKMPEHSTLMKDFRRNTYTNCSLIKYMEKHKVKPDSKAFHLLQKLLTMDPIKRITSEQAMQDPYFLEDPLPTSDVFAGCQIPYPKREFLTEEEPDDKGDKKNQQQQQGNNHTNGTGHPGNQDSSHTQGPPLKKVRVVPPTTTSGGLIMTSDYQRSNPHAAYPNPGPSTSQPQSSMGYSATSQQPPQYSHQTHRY
T23 sequence (P24863 whole entry partner): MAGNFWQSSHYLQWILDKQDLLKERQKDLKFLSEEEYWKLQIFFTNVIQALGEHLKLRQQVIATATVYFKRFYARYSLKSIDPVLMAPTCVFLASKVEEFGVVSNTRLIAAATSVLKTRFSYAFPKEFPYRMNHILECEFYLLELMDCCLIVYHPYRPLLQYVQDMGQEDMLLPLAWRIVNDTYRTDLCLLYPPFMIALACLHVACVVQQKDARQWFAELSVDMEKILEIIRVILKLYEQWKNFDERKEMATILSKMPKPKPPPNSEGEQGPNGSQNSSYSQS
T2 sequence (P06493 whole entry): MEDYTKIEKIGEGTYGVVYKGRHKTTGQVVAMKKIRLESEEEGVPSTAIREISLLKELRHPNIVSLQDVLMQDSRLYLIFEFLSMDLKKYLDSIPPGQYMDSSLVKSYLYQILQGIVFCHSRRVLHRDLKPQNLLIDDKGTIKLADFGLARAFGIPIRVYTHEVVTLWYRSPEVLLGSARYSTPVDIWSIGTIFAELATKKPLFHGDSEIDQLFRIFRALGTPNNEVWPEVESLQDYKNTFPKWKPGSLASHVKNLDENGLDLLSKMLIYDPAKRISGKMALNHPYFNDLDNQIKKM
T2 sequence (P14635 whole entry partner): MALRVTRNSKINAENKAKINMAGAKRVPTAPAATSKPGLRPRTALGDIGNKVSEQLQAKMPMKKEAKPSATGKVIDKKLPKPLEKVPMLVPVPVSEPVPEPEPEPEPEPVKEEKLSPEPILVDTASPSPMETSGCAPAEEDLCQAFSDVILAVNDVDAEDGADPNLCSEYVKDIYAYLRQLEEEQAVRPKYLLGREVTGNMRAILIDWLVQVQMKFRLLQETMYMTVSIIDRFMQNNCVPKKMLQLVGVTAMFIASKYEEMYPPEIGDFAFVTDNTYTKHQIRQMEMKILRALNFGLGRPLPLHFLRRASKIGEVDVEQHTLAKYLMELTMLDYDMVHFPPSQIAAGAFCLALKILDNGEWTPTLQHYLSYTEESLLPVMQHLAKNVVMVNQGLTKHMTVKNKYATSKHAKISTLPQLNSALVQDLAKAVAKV
CDK18_CycY, sequence (Q07002 whole entry): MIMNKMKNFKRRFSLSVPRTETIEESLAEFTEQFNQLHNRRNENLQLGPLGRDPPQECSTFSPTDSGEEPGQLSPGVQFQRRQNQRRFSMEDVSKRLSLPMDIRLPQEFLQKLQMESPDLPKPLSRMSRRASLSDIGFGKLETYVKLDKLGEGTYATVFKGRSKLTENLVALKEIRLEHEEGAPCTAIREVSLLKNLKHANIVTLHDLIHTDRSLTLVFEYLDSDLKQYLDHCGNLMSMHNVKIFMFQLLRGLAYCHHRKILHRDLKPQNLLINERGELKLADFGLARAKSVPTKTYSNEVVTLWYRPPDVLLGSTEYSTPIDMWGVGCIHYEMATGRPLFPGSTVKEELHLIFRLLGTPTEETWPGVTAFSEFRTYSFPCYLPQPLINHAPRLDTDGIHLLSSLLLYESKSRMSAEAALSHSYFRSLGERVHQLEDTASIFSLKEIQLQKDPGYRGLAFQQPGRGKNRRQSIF
CDK18_CycY, sequence (Q8ND76 whole entry partner): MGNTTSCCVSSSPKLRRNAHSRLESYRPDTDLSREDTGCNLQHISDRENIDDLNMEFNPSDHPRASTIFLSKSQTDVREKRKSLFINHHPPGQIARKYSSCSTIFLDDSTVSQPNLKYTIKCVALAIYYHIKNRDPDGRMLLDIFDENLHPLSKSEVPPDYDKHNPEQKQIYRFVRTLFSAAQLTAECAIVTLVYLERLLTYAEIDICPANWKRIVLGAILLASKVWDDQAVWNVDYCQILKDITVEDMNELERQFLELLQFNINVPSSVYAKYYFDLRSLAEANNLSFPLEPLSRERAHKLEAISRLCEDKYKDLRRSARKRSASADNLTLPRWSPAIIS
T8 sequence (Q9BWU1 whole entry): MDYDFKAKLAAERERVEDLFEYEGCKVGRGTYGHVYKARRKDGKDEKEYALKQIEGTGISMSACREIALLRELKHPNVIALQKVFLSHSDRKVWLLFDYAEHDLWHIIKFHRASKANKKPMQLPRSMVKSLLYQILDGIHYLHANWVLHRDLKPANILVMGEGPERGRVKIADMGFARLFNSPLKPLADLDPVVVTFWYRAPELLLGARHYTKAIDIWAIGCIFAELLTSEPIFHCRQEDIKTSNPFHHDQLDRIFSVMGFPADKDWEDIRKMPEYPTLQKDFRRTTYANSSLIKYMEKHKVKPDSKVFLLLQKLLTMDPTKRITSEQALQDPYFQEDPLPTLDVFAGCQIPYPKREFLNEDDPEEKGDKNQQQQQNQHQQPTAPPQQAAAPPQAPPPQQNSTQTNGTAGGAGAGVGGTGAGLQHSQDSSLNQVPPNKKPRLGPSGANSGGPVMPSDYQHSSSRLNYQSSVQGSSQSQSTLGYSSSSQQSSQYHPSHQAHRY
T8 sequence (P24863 whole entry partner): as the sequence (P24863 whole entry partner) above
CDK11B 357-795_CycK, sequence (P21127 357-795): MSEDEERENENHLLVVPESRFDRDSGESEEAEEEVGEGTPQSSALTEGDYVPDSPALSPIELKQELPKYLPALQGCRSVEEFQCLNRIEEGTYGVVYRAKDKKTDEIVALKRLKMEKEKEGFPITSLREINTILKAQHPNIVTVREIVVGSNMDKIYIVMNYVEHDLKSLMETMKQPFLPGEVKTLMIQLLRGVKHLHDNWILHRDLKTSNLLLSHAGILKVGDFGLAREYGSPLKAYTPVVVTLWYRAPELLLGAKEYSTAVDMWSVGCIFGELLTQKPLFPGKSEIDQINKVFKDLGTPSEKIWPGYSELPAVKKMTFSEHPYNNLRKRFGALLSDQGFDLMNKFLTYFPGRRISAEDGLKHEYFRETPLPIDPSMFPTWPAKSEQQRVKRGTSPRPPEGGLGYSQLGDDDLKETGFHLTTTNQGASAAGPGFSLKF
CDK20_CycH, sequence (Q8IZL9 whole entry): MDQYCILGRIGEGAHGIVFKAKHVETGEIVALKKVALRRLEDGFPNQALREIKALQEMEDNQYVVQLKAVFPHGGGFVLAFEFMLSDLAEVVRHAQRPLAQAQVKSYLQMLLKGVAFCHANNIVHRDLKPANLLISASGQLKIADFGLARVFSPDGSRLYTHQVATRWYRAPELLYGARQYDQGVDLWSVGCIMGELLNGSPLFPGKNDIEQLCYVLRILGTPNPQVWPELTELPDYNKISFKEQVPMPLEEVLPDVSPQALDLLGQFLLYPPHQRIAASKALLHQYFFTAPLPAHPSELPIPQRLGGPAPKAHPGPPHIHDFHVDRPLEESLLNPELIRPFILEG
CDK20_CycT1, sequence (Q8IZL9 whole entry): as above
T22 sequence (P50613 whole entry): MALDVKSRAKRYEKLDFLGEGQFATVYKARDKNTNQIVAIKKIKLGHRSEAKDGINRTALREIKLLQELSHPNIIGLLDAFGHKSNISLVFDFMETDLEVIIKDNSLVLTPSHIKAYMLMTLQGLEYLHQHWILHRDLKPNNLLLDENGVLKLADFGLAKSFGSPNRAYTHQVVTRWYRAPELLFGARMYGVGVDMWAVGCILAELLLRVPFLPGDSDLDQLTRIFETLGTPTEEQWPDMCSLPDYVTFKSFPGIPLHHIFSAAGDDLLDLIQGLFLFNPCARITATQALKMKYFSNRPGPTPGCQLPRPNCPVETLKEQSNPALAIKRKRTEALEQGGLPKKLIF
T22 sequence (P51946 whole entry partner): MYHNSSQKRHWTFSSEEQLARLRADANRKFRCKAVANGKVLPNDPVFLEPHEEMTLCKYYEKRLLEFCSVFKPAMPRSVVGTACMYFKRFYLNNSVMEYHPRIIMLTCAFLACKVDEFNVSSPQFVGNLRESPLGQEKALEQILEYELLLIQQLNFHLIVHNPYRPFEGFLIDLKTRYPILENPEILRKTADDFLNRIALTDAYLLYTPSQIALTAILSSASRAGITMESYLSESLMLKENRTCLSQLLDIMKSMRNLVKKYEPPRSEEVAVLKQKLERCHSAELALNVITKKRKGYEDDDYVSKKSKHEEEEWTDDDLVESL
T22 sequence (P51948 whole entry partner): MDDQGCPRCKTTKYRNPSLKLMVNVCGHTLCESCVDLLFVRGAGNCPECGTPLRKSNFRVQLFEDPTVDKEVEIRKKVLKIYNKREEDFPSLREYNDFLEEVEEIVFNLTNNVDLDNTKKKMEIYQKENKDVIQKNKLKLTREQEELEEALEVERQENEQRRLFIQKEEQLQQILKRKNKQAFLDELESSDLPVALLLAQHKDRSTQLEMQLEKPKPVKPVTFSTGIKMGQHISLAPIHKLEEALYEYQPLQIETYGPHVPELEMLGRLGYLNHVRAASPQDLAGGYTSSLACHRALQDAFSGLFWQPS

With `Cc1n[nH]c2ncc(C(=O)N3CCC[C@H]3c3ccc(Cl)cc3)cc12` [MSC2530818] the pIC50 (CDK1_CycA2) was 5.19, the “Hill Slope” value (CDK1_CycA2; slope of the IC50 fit) was -0.93 and the pIC50 (CDK1_CycB1; [1]) was less than 5.00. The “Hill Slope” value (CDK1_CycB1; slope of the IC50 fit) was -0.72, the pIC50 (CDK1_CycE1) was 5.38 and the “Hill Slope” value (CDK1_CycE1; slope of the IC50 fit) was -0.97. The pIC50 (CDK10_CycQ; [1]) was less than 5.00, the “Hill Slope” value (CDK10_CycQ; slope of the IC50 fit) was -1.12 and the pIC50 (CDK11B 357-795_CycK; [1]) was less than 5.00. For the same compound, the “Hill Slope” value (CDK11B 357-795_CycK; slope of the IC50 fit) was -0.64, the pIC50 (CDK12_CycK; [1]) was 5.01 and the “Hill Slope” value (CDK12_CycK; slope of the IC50 fit) was -0.59. For the same compound, the pIC50 (CDK13_CycK) was less than 5.00, the “Hill Slope” value (CDK13_CycK; slope of the IC50 fit) was -0.19 and the pIC50 (CDK14_CycY; [1]) was less than 5.00. For the same compound, the “Hill Slope” value (CDK14_CycY; slope of the IC50 fit) was -1, the pIC50 (CDK15_CycA2; [1]) was less than 5.00 and the “Hill Slope” value (CDK15_CycA2; slope of the IC50 fit) was -0.85. The pIC50 (CDK16_CycY; [1]) was less than 5.00, the “Hill Slope” value (CDK16_CycY; slope of the IC50 fit) was -0.58 and the pIC50 (CDK17_p35NCK; [1]) was less than 5.00. For the same compound, the “Hill Slope” value (CDK17_p35NCK; slope of the IC50 fit) was -0.57, the pIC50 (CDK18_CycY; [1]) was 5.43 and the “Hill Slope” value (CDK18_CycY; slope of the IC50 fit) was -1.14. For the same compound, the pIC50 (CDK19_CycC) was 6.45, the “Hill Slope” value (CDK19_CycC; slope of the IC50 fit) was -0.43 and the pIC50 (CDK2_CycA2) was 5.19. The pIC50 (CDK2_CycD1) was 5.01, the “Hill Slope” value (CDK2_CycD1; slope of the IC50 fit) was -1.08 and the pIC50 (CDK2_CycE1) was 5.53. The “Hill Slope” value (CDK2_CycE1; slope of the IC50 fit) was -1.29, the pIC50 (CDK20_CycH; [1]) was less than 5.00 and the “Hill Slope” value (CDK20_CycH; slope of the IC50 fit) was -0.81. For the same compound, the pIC50 (CDK20_CycT1; [1]) was less than 5.00, the “Hill Slope” value (CDK20_CycT1; slope of the IC50 fit) was -0.44 and the pIC50 (CDK3_CycC) was 5.19. For the same compound, the “Hill Slope” value (CDK3_CycC; slope of the IC50 fit) was -0.76, the pIC50 (CDK3_CycE1) was less than 5.00 and the “Hill Slope” value (CDK3_CycE1; slope of the IC50 fit) was -0.54. For the same compound, the pIC50 (CDK4_CycD1; [1]) was less than 5.00, the “Hill Slope” value (CDK4_CycD1; slope of the IC50 fit) was -0.48 and the pIC50 (CDK4_CycD2; [1]) was less than 5.00. For the same compound, the “Hill Slope” value (CDK4_CycD2; slope of the IC50 fit) was -0.44, the pIC50 (CDK4_CycD3; [1]) was less than 5.00 and the “Hill Slope” value (CDK4_CycD3; slope of the IC50 fit) was -0.71. For the same compound, the pIC50 (CDK5_p25NCK; [1]) was less than 5.00, the “Hill Slope” value (CDK5_p25NCK; slope of the IC50 fit) was -0.57 and the pIC50 (CDK5_p35NCK; [1]) was 5.12. For the same compound, the “Hill Slope” value (CDK5_p35NCK; slope of the IC50 fit) was -1.04, the pIC50 (CDK6_CycD1; [1]) was less than 5.00 and the “Hill Slope” value (CDK6_CycD1; slope of the IC50 fit) was -0.22. For the same compound, the pIC50 (CDK6_CycD2; [1]) was less than 5.00, the “Hill Slope” value (CDK6_CycD2; slope of the IC50 fit) was -1.11 and the “Hill Slope” value (CDK6_CycD3) was -0.25. For the same compound, the pIC50 (CDK7_CycH_MAT1; [1]) was less than 5.00, the “Hill Slope” value (CDK7_CycH_MAT1; slope of the IC50 fit) was -0.6 and the pIC50 (CDK8_CycC) was 6.94. For the same compound, the “Hill Slope” value (CDK8_CycC; slope of the IC50 fit) was -0.45, the pIC50 (CDK9_CycK; [1]) was less than 5.00 and the “Hill Slope” value (CDK9_CycK; slope of the IC50 fit) was -0.78. For the same compound, the pIC50 (CDK9_CycT1; [1]) was less than 5.00, the “Hill Slope” value (CDK9_CycT1; slope of the IC50 fit) was -1.26 and the “reduction of activity of TCF/LEF, SP1 and PAX6 reporter constructs” value (COLO205 cells) was greater than 1.5 fold. The pIC50 (CDK8) was 8.36.

Source: paper PMC12281475, “Mediator Kinase Inhibitor Selectivity and Activity in Colorectal Cancer” (ACS Chemical Biology, 2025)
